Earlier results in patent US20230364095A1, “TOPICAL TREATMENT OF VITILIGO” (INCYTE CORPORATION, priority 2020, published 2023).
Like-named read-outs stand apart in the source and are kept apart here.

Test system: patients with vitiligo

| SMILES | Clinical outcome (case report) (oral 20 mg BID for 20 weeks, patient with alopecia areata and vitiligo) | Clinical outcome (case report) (oral 5 mg QD, after 5 months, widespread and progressive vitiligo) |
| --- | --- | --- |
| N#CC[C@H](C1CCCC1)n1cc(-c2ncnc3[nH]ccc23)cn1 [ruxolitinib, (R)-3-(4-(7H-pyrrolo[2,3-d]pyrimidin-4-yl)-1H-pyrazol-1-yl)-3-cyclopentylpropanenitrile] | hair regrowth as well as repigmentation of areas affected with vitiligo | – |
| C[C@@H]1CCN(C(=O)CC#N)C[C@@H]1N(C)c1ncnc2[nH]ccc12 [tofacitinib] | – | near complete repigmentation |
